The target in experiment [1] is T1, truncated form of human Choline kinase α1 that includes residues 75-457 (Homo sapiens, UniProt P35790).
T1 construct: made in house
The experiment is described as follows: Kinase Assay, coupled (ATP regeneration) LDH/PK assay, NADH absorbance. Type of experiment: biochemical. On the procedure:
Absorbance of NADH (340 nm) was measured over 30 min using a SpectraMax M5 (Molecular Devices). Initial reaction velocity (ΔA340/Δt) was calculated and plotted as a function of inhibitor concentration in a 2-fold dilution series. IC50 values were obtained by fitting the relative velocities to a dose-response model.

The next experiment deals with T2, ChoKα protein (Homo sapiens, UniProt P35790).
T2 construct: made in house
The experiment is described as follows: Binding affinity by surface plasmon resonance (SensiQ Pioneer, FastStep). On the procedure: KD may be measured using surface plasmon resonance (BIAcore®) technology, see, e.g., Panayotou et al, Mol. Cell. […] ChoKα protein was immobilized by standard amine coupling methods on a COOH5 sensor chip installed in a SensiQ Pioneer system. Sensograms were measured using the FastStep™ screen method with an upper concentration of 500 nM. Kinetics and affinity were obtained from fits using a 1:1 binding model.

The mark [2] stands for this setting: Examples not designated with an asterisk, footnote prints version 1 of the Kinase Assay, read-out: IC50.
The mark [3] stands for this setting: SPR, 1:1 binding model, upper concentration 500 nM, read-out: Kd.
Where [4] appears, read: Examples designated with an asterisk (*): version 1 of the Kinase Assay, 200 nM enzyme, read-out: IC50.

Where two headings read alike, the source gives them in different places.

T2 sequence (P35790 75-457): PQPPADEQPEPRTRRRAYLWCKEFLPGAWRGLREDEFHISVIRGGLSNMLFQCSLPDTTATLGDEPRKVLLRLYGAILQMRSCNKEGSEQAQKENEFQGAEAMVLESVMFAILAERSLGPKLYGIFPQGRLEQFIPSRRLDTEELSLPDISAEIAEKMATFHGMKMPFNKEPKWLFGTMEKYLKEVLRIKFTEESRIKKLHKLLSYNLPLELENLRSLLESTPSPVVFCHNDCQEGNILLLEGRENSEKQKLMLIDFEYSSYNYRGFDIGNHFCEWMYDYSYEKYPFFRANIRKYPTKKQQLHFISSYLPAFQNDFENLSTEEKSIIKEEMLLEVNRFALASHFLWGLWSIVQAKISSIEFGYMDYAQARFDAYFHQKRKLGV
T1 sequence (P35790 75-457): as above

As to `CN1CCCN(Cc2ccc(-c3ccc(C(=O)N4CCCN(C)CC4)cc3-c3ccc(O)cc3)c(C#N)c2)CC1` [Example 69, 4″-hydroxy-4-((4-methyl-1,4-diazepan-1-yl)methyl)-4′-(4-methyl-1,4-diazepane-1-carbonyl)-[1,1′:2′,1″-terphenyl]-2-carbonitrile], the IC50 in experiment [1] (setting [2]) was less than 100 nM. Further, the Kd at ChoKα protein (setting [3]) is less than 50 nM.

Take `CN1CCCN(Cc2ccc(-c3ccc(CN4CCNC(=O)C4)cc3)c(C#N)c2)CC1` [Example 7, 4-((4-methyl-1,4-diazepan-1-yl)methyl)-4′-((3-oxopiperazin-1-yl)methyl)-[1,1′-biphenyl]-2-carbonitrile]: the IC50 in experiment [1] (setting [2]) is less than 200 nM. Besides, the equilibrium dissociation constant (Kd) at ChoKα protein (setting [3]) is less than 60000 nM.

Consider `CN1CCCN(Cc2ccc(-c3ccc(C(=O)N4CCCN(C)CC4)cc3-c3ccncc3)c(C#N)c2)CC1` [Example 72, 4-((4-methyl-1,4-diazepan-1-yl)methyl)-4′-(4-methyl-1,4-diazepane-1-carbonyl)-2′-(pyridin-4-yl)-[1,1′-biphenyl]-2-carbonitrile], for which, in experiment [1] (setting [2]), the half-inhibitory concentration (IC50) was less than 200 nM. Besides, at ChoKα protein (setting [3]), the Kd is less than 200 nM.

On to `CN1CCCN(Cc2ccc(-c3ccc(C(=O)N4CCCN(C)CC4)cc3-c3cn[nH]c3)c(C#N)c2)CC1` [Example 71, 4-((4-methyl-1,4-diazepan-1-yl)methyl)-4′-(4-methyl-1,4-diazepane-1-carbonyl)-2′-(1H-pyrazol-4-yl)-[1,1′-biphenyl]-2-carbonitrile], for which the IC50 in experiment [1] (setting [2]) was less than 100 nM. For the same compound, at ChoKα protein (setting [3]), the Kd is less than 100 nM.

Take `COC(=O)c1ccc(-c2ccc(CN3CCCN(C)CC3)cc2)cc1` [Example 158, methyl 4′-((4-methyl-1,4-diazepan-1-yl)methyl)-[1,1′-biphenyl]-4-carboxylate]: in experiment [1], the IC50 was less than 200 nM. On ChoKα protein, this compound came in with a Kd of less than 60000 nM.

With `CN1CCCN(Cc2ccc(-c3ccc(CN4CCCN(C)CC4)cc3[N+](=O)[O-])cc2)CC1` [Example 57, 4,4′-((2-nitro-[1,1′-biphenyl]-4,4′-diyl)bis(methylene))bis(1-methyl-1,4-diazepane)], in experiment [1] (setting [2]), the concentration for half-maximal inhibition (IC50) is less than 100 nM. Also, the Kd on ChoKα protein (setting [3]) was less than 100 nM.

`Cc1cc(CN2CCCN(C)CC2)ccc1-c1ccc(CO)cc1` [Example 51, (2′-methyl-4′-((4-methyl-1,4-diazepan-1-yl)methyl)-[1,1′-biphenyl]-4-yl)methanol]: in experiment [1] (setting [2]), the IC50 was less than 200 nM. Moreover, at ChoKα protein (setting [3]), the Kd is less than 60000 nM.

Consider `CN1CCCN(Cc2ccc(-c3ccc(CNS(C)(=O)=O)cc3)c(C#N)c2)CC1` [Example 48, N-((2′-cyano-4′-((4-methyl-1,4-diazepan-1-yl)methyl)-[1,1′-biphenyl]-4-yl)methyl)methanesulfonamide], for which the IC50 in experiment [1] (setting [2]) is less than 100 nM. In addition, the Kd at ChoKα protein (setting [3]) is less than 50 nM.

Consider `CN1CCCN(Cc2ccc(-c3ccc(S(C)(=O)=O)cc3)c(C#N)c2)CC1` [Example 94, 4-((4-methyl-1,4-diazepan-1-yl)methyl)-4′-(methylsulfonyl)-[1,1′-biphenyl]-2-carbonitrile], for which, in experiment [1] (setting [2]), the IC50 was less than 200 nM. Moreover, the dissociation constant (Kd) on ChoKα protein (setting [3]) is less than 200 nM.

Turning to `CN1CCCN(Cc2ccc(-c3ccc(C(=O)N4CCCN(C)CC4)cc3C#N)c(C#N)c2)CC1` [Example 63, 4-((4-methyl-1,4-diazepan-1-yl)methyl)-4′-(4-methyl-1,4-diazepane-1-carbonyl)-[1,1′-biphenyl]-2,2′-dicarbonitrile], the IC50 in experiment [1] (setting [2]) was less than 200 nM. Moreover, the Kd on ChoKα protein (setting [3]) is less than 200 nM.

As for `CN1CCCN(Cc2ccc(CNc3cccc(C(N)=O)c3)cc2)CC1` [Example 152, 3-((4-((4-methyl-1,4-diazepan-1-yl)methyl)benzyl)amino)benzamide], in experiment [1] (setting [4]), the IC50 was less than 200 nM. For the same compound, on ChoKα protein (setting [3]), the Kd is less than 60000 nM.

`CN1CCCN(Cc2ccc(-c3ccc(C(=O)N4CCCN(C)CC4)cc3-c3cc(F)cc(F)c3)c(C#N)c2)CC1` [Example 78, 3″,5″-difluoro-4-((4-methyl-1,4-diazepan-1-yl)methyl)-4′-(4-methyl-1,4-diazepane-1-carbonyl)-[1,1′:2′,1″-terphenyl]-2-carbonitrile]: the IC50 in experiment [1] (setting [2]) was less than 100 nM. The Kd on ChoKα protein (setting [3]) was less than 50 nM.

As to `CN1CCCN(Cc2ccc(-c3ccc(CN4CCCC(O)C4)cc3)c(C#N)c2)CC1` (stereo not shown) [Example 1, 4′-((3-hydroxypiperidin-1-yl)methyl)-4-((4-methyl-1,4-diazepan-1-yl)methyl)-[1,1′-biphenyl]-2-carbonitrile], the IC50 in experiment [1] (setting [2]) was less than 100 nM. Moreover, the Kd on ChoKα protein (setting [3]) is less than 100 nM.

Consider `CN1CCCN(Cc2ccc(-c3ccc(C(F)(F)F)cc3)cc2)CC1` [Example 137, 1-methyl-4-((4′-(trifluoromethyl)-[1,1′-biphenyl]-4-yl)methyl)-1,4-diazepane], for which the IC50 in experiment [1] is less than 200 nM. Moreover, the Kd on ChoKα protein is less than 60000 nM.

With `CN1CCCN(Cc2ccc(-c3ccc(CC#N)cc3)c(C#N)c2)CC1` [Example 93, 4′-(cyanomethyl)-4-((4-methyl-1,4-diazepan-1-yl)methyl)-[1,1′-biphenyl]-2-carbonitrile], in experiment [1] (setting [2]), the IC50 was less than 200 nM. Also, the Kd on ChoKα protein (setting [3]) is less than 60000 nM.

`CN1CCCN(Cc2ccc(-c3ccc(S(=O)(=O)N4CCOCC4)cc3)c(C#N)c2)CC1` [Example 88, 4-((4-methyl-1,4-diazepan-1-yl)methyl)-4′-(morpholinosulfonyl)-[1,1′-biphenyl]-2-carbonitrile]: the IC50 in experiment [1] (setting [2]) was less than 200 nM. In addition, the equilibrium dissociation constant (Kd) at ChoKα protein (setting [3]) is less than 200 nM.

For the compound `CNC(=O)Nc1ccc(-c2ccc(CN3CCCN(C)CC3)cc2C#N)cc1` [Example 114, 1-(2′-cyano-4′-((4-methyl-1,4-diazepan-1-yl)methyl)-[1,1′-biphenyl]-4-yl)-3-methylurea], in experiment [1] (setting [2]), the IC50 was less than 100 nM. Also, the Kd at ChoKα protein (setting [3]) was less than 100 nM.

As for `CN1CCCN(Cc2ccc(-c3ccc(C(=O)N4CCCN(C)CC4)cc3-c3ccc(CN4CCOCC4)cc3)c(C#N)c2)CC1` [Example 80, 4-((4-methyl-1,4-diazepan-1-yl)methyl)-4′-(4-methyl-1,4-diazepane-1-carbonyl)-4″-(morpholinomethyl)-[1,1′:2′,1″-terphenyl]-2-carbonitrile], the IC50 in experiment [1] (setting [2]) is less than 100 nM. Further, the Kd at ChoKα protein (setting [3]) was less than 50 nM.

As to `CN1CCCN(Cc2ccc(-c3ccc(CN4CCC(CO)C4)cc3)c(C#N)c2)CC1` (stereo not shown) [Example 5, 4′-((3-(hydroxymethyl)pyrrolidin-1-yl)methyl)-4-((4-methyl-1,4-diazepan-1-yl)methyl)-[1,1′-biphenyl]-2-carbonitrile], in experiment [1] (setting [2]), the IC50 was less than 200 nM. Moreover, at ChoKα protein (setting [3]), the Kd is less than 200 nM.

Consider `CN1CCCN(Cc2ccc(-c3ccc(C(=O)NN)cc3)c(C#N)c2)CC1` [Example 91, 2′-cyano-4′-((4-methyl-1,4-diazepan-1-yl)methyl)-[1,1′-biphenyl]-4-carbohydrazide], for which the IC50 in experiment [1] (setting [2]) was less than 200 nM. Moreover, the Kd at ChoKα protein (setting [3]) is less than 200 nM.

As to `CN1CCCN(Cc2ccc(-c3ccc(CN4CCN(C)CC4)cc3)c(C#N)c2)CC1` [Example 11, 4-((4-methyl-1,4-diazepan-1-yl)methyl)-4′-((4-methylpiperazin-1-yl)methyl)-[1,1′-biphenyl]-2-carbonitrile], the half-maximal inhibitory concentration (IC50) in experiment [1] (setting [2]) is less than 200 nM. Also, the Kd at ChoKα protein (setting [3]) is less than 200 nM.

Turning to `CN1CCCN(Cc2ccc(-n3cncn3)cc2)CC1` [Example 139, 1-(4-(1H-1,2,4-triazol-1-yl)benzyl)-4-methyl-1,4-diazepane], in experiment [1] (setting [4]), the IC50 is less than 500 nM. At ChoKα protein (setting [3]), the Kd was less than 60000 nM.

On to `CN1CCCN(Cc2ccc(-c3ccc(S(=O)(=O)NCCO)cc3)c(C#N)c2)CC1` [Example 85, 2′-cyano-N-(2-hydroxyethyl)-4′-((4-methyl-1,4-diazepan-1-yl)methyl)-[1,1′-biphenyl]-4-sulfonamide], for which the concentration for half-maximal inhibition (IC50) in experiment [1] (setting [2]) was less than 100 nM. Moreover, on ChoKα protein (setting [3]), the Kd was less than 100 nM.

As to `CN1CCCN(Cc2ccc(-c3ccc(CN4CCC(O)C4)cc3)c(C#N)c2)CC1` (stereo not shown) [Example 2, 4′-((3-hydroxypyrrolidin-1-yl)methyl)-4-((4-methyl-1,4-diazepan-1-yl)methyl)-[1,1′-biphenyl]-2-carbonitrile], the IC50 in experiment [1] (setting [2]) was less than 100 nM. Besides, the Kd at ChoKα protein (setting [3]) is less than 50 nM.

Consider `CN1CCCN(Cc2ccc(-c3ccc(NC(N)=O)cc3)c(C#N)c2)CC1` [Example 90, 1-(2′-cyano-4′-((4-methyl-1,4-diazepan-1-yl)methyl)-[1,1′-biphenyl]-4-yl)urea], for which the IC50 in experiment [1] (setting [2]) was less than 200 nM. For the same compound, on ChoKα protein (setting [3]), the Kd was less than 200 nM.

Regarding `CCN(CC)C(=O)c1ccc(-c2ccc(CN3CCCN(C)CC3)cc2C#N)cc1` [Example 27, 2′-cyano-N,N-diethyl-4′-((4-methyl-1,4-diazepan-1-yl)methyl)-[1,1′-biphenyl]-4-carboxamide], the IC50 in experiment [1] (setting [2]) is less than 200 nM. For the same compound, the Kd on ChoKα protein (setting [3]) was less than 200 nM.

As for `CNC(=O)c1ccc(-c2ccc(CN3CCCN(C)CC3)cc2C#N)cc1` [Example 29, 2′-cyano-N-methyl-4′-((4-methyl-1,4-diazepan-yl)methyl)-[1,1′-biphenyl]-4-carboxamide], the IC50 in experiment [1] (setting [2]) was less than 200 nM. The Kd at ChoKα protein (setting [3]) is less than 200 nM.

Consider `CCN(CC)C1CCN(Cc2ccc(-c3ccc(CN4CCCN(C)CC4)cc3C#N)cc2)CC1` [Example 15, 4′-((4-(diethylamino)piperidin-1-yl)methyl)-4-((4-methyl-1,4-diazepan-1-yl)methyl)-[1,1′-biphenyl]-2-carbonitrile], for which, in experiment [1] (setting [2]), the IC50 is less than 100 nM. For the same compound, the dissociation constant (Kd) at ChoKα protein (setting [3]) is less than 50 nM.

Turning to `CN1CCCN(Cc2ccc(-c3ccc(C(=O)N4CCCN(C)CC4)cc3-c3cccc([N+](=O)[O-])c3)c(C#N)c2)CC1` [Example 77, 4-((4-methyl-1,4-diazepan-1-yl)methyl)-4′-(4-methyl-1,4-diazepane-1-carbonyl)-3″-nitro-[1,1′:2′,1″-terphenyl]-2-carbonitrile], in experiment [1] (setting [2]), the IC50 was less than 100 nM. Moreover, the Kd at ChoKα protein (setting [3]) is less than 50 nM.

(Values after patent publication US9834521B2, “Choline kinase inhibitors” (ARIAD Pharmaceuticals, Inc., priority 2013, dated 2017).)
